Test results as given in PubChem BioAssay AID2060892 (Molecular Pharmacology Branch, DTP, NCI, 2025).

Tested on: HOP-62 complex spheroids with HUVEC/MSC, viability
Test: Anticancer human tumor HOP-62 cell line growth inhibition [RAS];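 also: spheroids exposed to agents for seven days before readout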;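 as to viability, T/C: 100% = DMSO vehicle control viability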
Conditions: for IC50: curve of first compound; for viability, T/C: stronger effect = lower value; active = viability on the fitted dose curve at most 10% of control; inactive = the rest
In short: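 Multi-cell-type spheroids: tumor cells plus HUVEC endothelial cells and mesenchymal stem cells. RAS-pathway inhibitors were combined with targeted agents, each dosed in half-log steps down from clinical Cmax, or from 10 microM when Cmax was unknown.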

[1] = second compound 0.00316 µM, first compound 0.0316 µM
[2] = second compound 0.00316 µM, first compound 0.1 µM
[3] = second compound 0.00316 µM, first compound 0.316 µM
[4] = second compound 0.00316 µM, first compound 1 µM
[5] = second compound 0.01 µM, first compound 0.0316 µM
[6] = second compound 0.01 µM, first compound 0.1 µM
[7] = second compound 0.01 µM, first compound 0.316 µM
[8] = second compound 0.01 µM, first compound 1 µM
[9] = second compound 0.0316 µM, first compound 0.0316 µM
[10] = second compound 0.0316 µM, first compound 0.1 µM
[11] = second compound 0.0316 µM, first compound 0.316 µM
[12] = second compound 0.0316 µM, first compound 1 µM
[13] = second compound 0.1 µM, first compound 0.0316 µM
[14] = second compound 0.1 µM, first compound 0.1 µM
[15] = second compound 0.1 µM, first compound 0.316 µM
[16] = second compound 0.1 µM, first compound 1 µM
[17] = second compound 0.316 µM, first compound 0.0316 µM
[18] = second compound 0.316 µM, first compound 0.1 µM
[19] = second compound 0.316 µM, first compound 0.316 µM
[20] = second compound 0.316 µM, first compound 1 µM
[21] = second compound 1 µM, first compound 0.0316 µM
[22] = second compound 1 µM, first compound 0.1 µM
[23] = second compound 1 µM, first compound 0.316 µM
[24] = second compound 1 µM, first compound 1 µM

CC1(C)CCC(Nc2ncc(C(F)(F)F)c(-c3c[nH]c4c(P(C)(C)=O)c(C#N)ccc34)n2)CN1 (stereo unspecified) + C#Cc1c(F)ccc2cc(O)cc(-c3ncc4c(N5CC6CCC(C5)N6)nc(OCC56CCCN5CC(F)C6)nc4c3F)c12
1.8 nM: IC50 (second compound 1 µM)
2.01 nM: IC50 (second compound 0.0316 µM)
1.33 nM: IC50 (second compound 3.16 µM)
< 0.949 nM: IC50 (second compound 10 µM)
2.05 nM: IC50 (second compound 0.316 µM)
1.73 nM: IC50 (second compound 0.1 µM)
inactive: viability, T/C (second compound 0.0316 µM, first compound 0.000949 µM) 76.3% | viability, T/C (second compound 0.0316 µM, first compound 0.003 µM) 35.9% | viability, T/C (second compound 0.0316 µM, first compound 0.00949 µM) 22.1% | viability, T/C (second compound 0.0316 µM, first compound 0.03 µM) 24.1% | viability, T/C (second compound 0.0316 µM, first compound 0.0949 µM) 27.6% | viability, T/C (second compound 0.0316 µM, first compound 0.3 µM) 25.8% | viability, T/C (second compound 0.1 µM, first compound 0.000949 µM) 72.1% | viability, T/C (second compound 0.1 µM, first compound 0.003 µM) 30.1% | viability, T/C (second compound 0.1 µM, first compound 0.00949 µM) 23.6% | viability, T/C (second compound 0.1 µM, first compound 0.03 µM) 24% | viability, T/C (second compound 0.1 µM, first compound 0.0949 µM) 25.8% | viability, T/C (second compound 0.1 µM, first compound 0.3 µM) 28.5% | viability, T/C (second compound 0.316 µM, first compound 0.000949 µM) 73.2% | viability, T/C (second compound 0.316 µM, first compound 0.003 µM) 38.5% | viability, T/C (second compound 0.316 µM, first compound 0.00949 µM) 21% | viability, T/C (second compound 0.316 µM, first compound 0.03 µM) 21.6% | viability, T/C (second compound 0.316 µM, first compound 0.0949 µM) 26% | viability, T/C (second compound 0.316 µM, first compound 0.3 µM) 29.3% | viability, T/C (second compound 1 µM, first compound 0.000949 µM) 75.3% | viability, T/C (second compound 1 µM, first compound 0.003 µM) 29.9% | viability, T/C (second compound 1 µM, first compound 0.00949 µM) 23.4% | viability, T/C (second compound 1 µM, first compound 0.03 µM) 25% | viability, T/C (second compound 1 µM, first compound 0.0949 µM) 26% | viability, T/C (second compound 1 µM, first compound 0.3 µM) 25.2% | viability, T/C (second compound 3.16 µM, first compound 0.000949 µM) 57.4% | viability, T/C (second compound 3.16 µM, first compound 0.003 µM) 32.1% | viability, T/C (second compound 3.16 µM, first compound 0.00949 µM) 26.4% | viability, T/C (second compound 3.16 µM, first compound 0.03 µM) 24.7% | viability, T/C (second compound 3.16 µM, first compound 0.0949 µM) 27.8% | viability, T/C (second compound 3.16 µM, first compound 0.3 µM) 26.4% | viability, T/C (second compound 10 µM, first compound 0.000949 µM) 47.8% | viability, T/C (second compound 10 µM, first compound 0.003 µM) 30.8% | viability, T/C (second compound 10 µM, first compound 0.00949 µM) 29.3% | viability, T/C (second compound 10 µM, first compound 0.03 µM) 28.3% | viability, T/C (second compound 10 µM, first compound 0.0949 µM) 31% | viability, T/C (second compound 10 µM, first compound 0.3 µM) 33.9%

C=CC(=O)Nc1cc(Nc2nccc(-c3cn(C)c4ccccc34)n2)c(OC)cc1N(C)CCN(C)C + C=CC(=O)N1CCN(c2nc(OCC3CCCN3C)nc3c(F)c(-c4nc(N)cc(C)c4C(F)(F)F)c(Cl)cc23)C(C)C1
308 nM: IC50 (second compound 0.316 µM)
333 nM: IC50 (second compound 1 µM)
280 nM: IC50 (second compound 0.1 µM)
inactive: viability, T/C (second compound 0.00316 µM, first compound 0.00316 µM) 82.4% | viability, T/C (second compound 0.00316 µM, first compound 0.01 µM) 74.9% | viability, T/C [1] 72.5% | viability, T/C [2] 74.1% | viability, T/C [3] 64.1% | viability, T/C [4] 40.5% | viability, T/C (second compound 0.01 µM, first compound 0.00316 µM) 74% | viability, T/C (second compound 0.01 µM, first compound 0.01 µM) 66.6% | viability, T/C [5] 65.7% | viability, T/C [6] 66.4% | viability, T/C [7] 52.9% | viability, T/C [8] 29.4% | viability, T/C (second compound 0.0316 µM, first compound 0.00316 µM) 74.9% | viability, T/C (second compound 0.0316 µM, first compound 0.01 µM) 69.9% | viability, T/C [9] 52.6% | viability, T/C [10] 51.5% | viability, T/C [11] 51.3% | viability, T/C [12] 35.2% | viability, T/C (second compound 0.1 µM, first compound 0.00316 µM) 65.7% | viability, T/C (second compound 0.1 µM, first compound 0.01 µM) 66.1% | viability, T/C [13] 62.7% | viability, T/C [14] 56.4% | viability, T/C [15] 50.9% | viability, T/C [16] 29.4% | viability, T/C (second compound 0.316 µM, first compound 0.00316 µM) 59.2% | viability, T/C (second compound 0.316 µM, first compound 0.01 µM) 58.1% | viability, T/C [17] 59.2% | viability, T/C [18] 57.9% | viability, T/C [19] 48.5% | viability, T/C [20] 33.8% | viability, T/C (second compound 1 µM, first compound 0.00316 µM) 63.9% | viability, T/C (second compound 1 µM, first compound 0.01 µM) 53.5% | viability, T/C [21] 68.9% | viability, T/C [22] 56.9% | viability, T/C [23] 49.8% | viability, T/C [24] 34.1%
628 nM: IC50 (second compound 0.00316 µM)
131 nM: IC50 (second compound 0.0316 µM)
372 nM: IC50 (second compound 0.01 µM)

CC1(O)CCCC1n1c(=O)c(C(F)F)cc2cnc(NC3CCN(S(C)(=O)=O)CC3)nc21 (stereo unspecified) + C=CC(=O)N1CCN(c2nc(OCC3CCCN3C)nc3c(F)c(-c4nc(N)cc(C)c4C(F)(F)F)c(Cl)cc23)C(C)C1
< 31.6 nM: IC50 (second compound 0.316 µM)
active: viability, T/C (second compound 0.00316 µM, first compound 10 µM) 1.76% | viability, T/C (second compound 0.01 µM, first compound 10 µM) 0.91% | viability, T/C (second compound 0.0316 µM, first compound 10 µM) 0.75% | viability, T/C (second compound 0.1 µM, first compound 10 µM) 0.8% | viability, T/C (second compound 0.316 µM, first compound 10 µM) 0.96% | viability, T/C (second compound 1 µM, first compound 10 µM) 1.08%
140 nM: IC50 (second compound 0.00316 µM)
40.3 nM: IC50 (second compound 0.0316 µM)
55.7 nM: IC50 (second compound 1 µM)
94.8 nM: IC50 (second compound 0.01 µM)
inactive: viability, T/C [1] 64% | viability, T/C [2] 47.8% | viability, T/C [3] 38.4% | viability, T/C [4] 35.6% | viability, T/C (second compound 0.00316 µM, first compound 3.16 µM) 32.3% | viability, T/C [5] 66.3% | viability, T/C [6] 43.9% | viability, T/C [7] 28.7% | viability, T/C [8] 34% | viability, T/C (second compound 0.01 µM, first compound 3.16 µM) 27.7% | viability, T/C [9] 55.5% | viability, T/C [10] 39.8% | viability, T/C [11] 29.9% | viability, T/C [12] 28.3% | viability, T/C (second compound 0.0316 µM, first compound 3.16 µM) 22.9% | viability, T/C [13] 66.5% | viability, T/C [14] 40% | viability, T/C [15] 30.1% | viability, T/C [16] 30% | viability, T/C (second compound 0.1 µM, first compound 3.16 µM) 29.5% | viability, T/C [17] 53.6% | viability, T/C [18] 37.6% | viability, T/C [19] 30.6% | viability, T/C [20] 32.6% | viability, T/C (second compound 0.316 µM, first compound 3.16 µM) 21.9% | viability, T/C [21] 59.4% | viability, T/C [22] 39.4% | viability, T/C [23] 29.9% | viability, T/C [24] 27.2% | viability, T/C (second compound 1 µM, first compound 3.16 µM) 25.7%
81.2 nM: IC50 (second compound 0.1 µM)
